# Target: T1, CAMK4 (CaMKIV) (Homo sapiens, UniProt Q16566)
# T1 construct: purchased Thermo Fisher Scientific (Life Technologies) SelectScreen
# Test: SelectScreen Z'LYTE
# Format: biochemical
# How it was run: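 Percent values come from Thermo SelectScreen profiling of NU5455, combining activity and binding assays. CSF1R was run in Z'LYTE format at Km app ATP, and CAMK1 in Adapta format with ATP listed at 10.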
# T1 sequence (Q16566 whole entry): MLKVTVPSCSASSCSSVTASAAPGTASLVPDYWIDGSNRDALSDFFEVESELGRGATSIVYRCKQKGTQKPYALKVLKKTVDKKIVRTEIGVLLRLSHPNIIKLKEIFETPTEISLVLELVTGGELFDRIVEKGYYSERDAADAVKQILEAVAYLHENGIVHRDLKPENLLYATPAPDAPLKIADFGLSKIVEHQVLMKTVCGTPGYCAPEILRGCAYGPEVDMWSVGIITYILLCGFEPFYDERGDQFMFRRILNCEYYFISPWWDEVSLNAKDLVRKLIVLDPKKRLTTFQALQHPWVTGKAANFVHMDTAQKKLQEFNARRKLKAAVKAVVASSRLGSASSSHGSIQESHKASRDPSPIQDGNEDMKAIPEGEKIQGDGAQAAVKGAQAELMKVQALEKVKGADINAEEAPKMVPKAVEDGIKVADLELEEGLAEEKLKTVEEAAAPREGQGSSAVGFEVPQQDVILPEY
structure (smiles),measurement,value
CN(C(=O)CN1CCOCC1)c1ccc2sc3c(-c4cccc5c(=O)cc(N6CC7CCC(C6)O7)oc45)cccc3c2c1 [NU5455],inhibition at 1 µM,-10.4%

# From publication PMC6934184, “Selective DNA-PKcs inhibition extends the therapeutic index of localized radiotherapy and chemotherapy” (The Journal of Clinical Investigation, 2019)
